Measured values as given in paper PMC7435865, “Antinociceptive and Cytotoxic Activity of Opioid Peptides with Hydrazone and Hydrazide Moieties at the C-Terminus” (Molecules, 2020).
Read-outs that look alike come from different tables or passages of the source. Where a SMILES comes first, the peptide text is derived from it. [ ]: non-standard residue; d: D form. The star is where a group is joined. X4 = O=C(NN*)c1cc(C(F)(F)F)cc(C(F)(F)F)c1; X3 = FC(F)(F)c1cc(C=NN*)cc(C(F)(F)F)c1

Assays:
[1] = target: T1, µ opioid receptor (MOR) (Rattus norvegicus, UniProt P33535); experiment: competitive radioligand binding, [3H]DAMGO displacement in rat brain homogenate
T1 construct: from tissue; host or cells: rat brain (membrane fractions of homogenate)
T1 sequence (P33535 whole entry): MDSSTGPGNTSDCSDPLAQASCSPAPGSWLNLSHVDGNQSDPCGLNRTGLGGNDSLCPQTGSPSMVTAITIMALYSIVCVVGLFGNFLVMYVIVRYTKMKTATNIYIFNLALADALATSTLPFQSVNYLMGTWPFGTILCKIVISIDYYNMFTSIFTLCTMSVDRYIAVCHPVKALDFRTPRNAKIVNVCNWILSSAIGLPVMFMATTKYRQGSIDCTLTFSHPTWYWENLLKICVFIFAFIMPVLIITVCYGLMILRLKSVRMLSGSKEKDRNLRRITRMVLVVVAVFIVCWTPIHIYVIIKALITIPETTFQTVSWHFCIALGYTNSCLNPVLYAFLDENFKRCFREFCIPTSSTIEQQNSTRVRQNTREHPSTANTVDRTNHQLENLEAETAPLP
Experimental: (§1) The synthesized compounds were assayed for binding affinity to the μ- and δ-opioid (MOR and DOR, respectively), as well as to the neurokinin-1 receptors (NK1R). The determinations were performed in rat brain homogenates by competitive displacement of selective radioligands. The results are shown in Table 2 as the half-maximal inhibitory concentration (IC50) with the standard error of the mean (SEM).
(§2) The binding affinity of compounds 1b–6a for MOR, DOR, and NK1R was determined in competitive radioligand binding assays according to the method previously described. The specific radioligands were [^3H]DAMGO (DAMGO, [Tyr^1-3,5-^3H])), [^3H][Ile^5,6]DELT II ([Ile^5,6]Deltorphin II, [Tyr^l-3,5-^3H]) and [^3H]Substance P (Substance P, [Leu-3,4,5-^3H]), for experiments with MOR, DOR, and NK1R, respectively. The first two were obtained from Isotope Laboratory, Biological Research Centre, Institute of Biochemistry (Szeged, Hungary), whereas the latter was purchased from Perkin Elmer (Perkin Elmer Inc., Krakow, Poland). Membrane fractions of rat brain homogenate were incubated at 25 °C for 60 min in the presence of radioligands (0.5 nM) specific for each receptor and increasing concentrations of the tested compounds. To measure non-specific binding, 10 μM naloxone was used as the competitor for opioid receptors and 10 μM cold Substance P was used for NK1R. The reactions were carried out in assay buffer containing Tris-HCl (pH 7.4) with an addition of bovine serum albumin (BSA) and protease inhibitors (bacitracin, bestatin, captopril). After the incubation, the binding reactions were terminated by rapid filtration with M-24 Cell Harvester (Brandel/USA) through GF/B Whatman glass fiber strips (presoaked with 0.5% PEI in order to minimize non-specific binding). Radioactivity retained on the filters was measured in MicroBeta LS on a Trilux scintillation counter (PerkinElmer, Santa Clara, CA, USA). The experiments were repeated at least two times in duplicate. The IC50 value for each compound was determined using GraphPad Prism.

[2] = target: T2, δ opioid receptor (DOR) (Rattus norvegicus, UniProt P33533); experiment: competitive radioligand binding, [3H][Ile5,6]Deltorphin II displacement in rat brain homogenate
T2 construct: from tissue; host or cells: rat brain (membrane fractions of homogenate)
T2 sequence (P33533 whole entry): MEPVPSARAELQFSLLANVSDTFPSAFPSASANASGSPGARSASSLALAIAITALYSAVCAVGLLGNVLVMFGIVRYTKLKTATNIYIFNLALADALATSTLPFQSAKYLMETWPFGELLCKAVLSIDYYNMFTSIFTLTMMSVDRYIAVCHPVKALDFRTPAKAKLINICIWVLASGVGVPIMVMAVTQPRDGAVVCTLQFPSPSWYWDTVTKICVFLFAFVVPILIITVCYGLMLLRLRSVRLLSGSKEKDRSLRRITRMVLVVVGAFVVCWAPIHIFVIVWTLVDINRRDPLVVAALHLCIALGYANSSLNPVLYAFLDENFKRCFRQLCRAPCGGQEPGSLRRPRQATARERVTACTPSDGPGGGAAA
Experimental: as §1, §2

[3] = target: T3, neurokinin-1 receptor (NK1R) (Rattus norvegicus, UniProt P14600); experiment: competitive radioligand binding, [3H]Substance P displacement in rat brain homogenate
T3 construct: from tissue; host or cells: rat brain (membrane fractions of homogenate)
T3 sequence (P14600 whole entry): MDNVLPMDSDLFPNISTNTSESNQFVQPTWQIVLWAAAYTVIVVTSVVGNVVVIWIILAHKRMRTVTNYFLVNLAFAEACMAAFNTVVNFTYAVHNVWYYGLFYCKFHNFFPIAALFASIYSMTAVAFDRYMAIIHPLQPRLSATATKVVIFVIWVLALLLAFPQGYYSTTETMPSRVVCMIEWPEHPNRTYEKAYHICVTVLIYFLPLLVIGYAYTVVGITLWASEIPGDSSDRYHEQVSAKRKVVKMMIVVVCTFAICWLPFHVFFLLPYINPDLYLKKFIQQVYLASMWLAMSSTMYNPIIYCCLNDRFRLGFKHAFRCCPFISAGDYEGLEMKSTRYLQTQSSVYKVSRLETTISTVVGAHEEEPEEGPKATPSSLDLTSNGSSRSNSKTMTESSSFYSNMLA
Experimental: as §1, §2

[4] = system: MeW155 human melanoma cells; experiment: melanoma cell number in culture after incubation with compound; format: cell-based; conditions: 50 µM, 96 h incubation
Experimental: The determination was performed by counting the cells of the MeW155 cell line after incubating them with 50 µM of the tested compounds.
The cells were plated in 24-well plates (5000 cells per well) and incubated for 24 h in Eagle’s medium containing 10% fetal bovine serum and 1% solution of penicillin and streptomycin. […] Control cells were treated with 1% DMSO only. After 96 h of incubation, the cell suspension was first lysed in lysis buffer (ReagentA, ChemoMetec A/S) and then stabilized in stabilization buffer (ReagentB, ChemoMetec A/S). The number of […] was quantified in a propidium iodide cassette with the use of a NucleoCounter® NC-100™ (ChemoMetec A/S) cell counter. The tests were performed in triplicate. The results were normalized so that the values obtained for the control were 100%.

Row | SMILES | IC50 [1] | MOR IC50 ratio 2a and 1a ([1]; ratio of IC50 of hydrazones 2a and 1a) | IC50 [2] | IC50 [3] | effect on number of melanoma cells (in words) [4] | number of MeW155 cells, % of the control value [4] | DOR binding (in words) ([2]; rat brain homogenate) | IC50 ([1]; rat brain homogenate, [3H]DAMGO 0.5 nM, read-out: MOR IC50 ± SEM) | IC50 ([2]; rat brain homogenate, [3H][Ile5,6]DELT II 0.5 nM, read-out: DOR IC50 ± SEM) | IC50 ([3]; rat brain homogenate, [3H]Substance P 0.5 nM, read-out: NK1R IC50 ± SEM)
1 | C[C@@H](NC(=O)[C@@H](N)Cc1ccc(O)cc1)C(=O)NCC(=O)N[C@@H](Cc1c[nH]c2ccccc12)C(=O)NN=Cc1cc(C(F)(F)F)cc(C(F)(F)F)c1 [2a, H-Tyr-D-Ala-Gly-Trp-NH-N=CH-3,5-(CF3)2Ph] (H-Y[dA]GW-X3) | 112 ± 16.9 nM | about 10 | 914 ± 43.5 nM | > 1000 nM | significantly decrease the number of melanoma cells | 20 ± 4 % of the control |  |  |  | 
2 | C[C@@H](NC(=O)[C@@H](N)Cc1ccc(O)cc1)C(=O)NCC(=O)N[C@@H](Cc1c[nH]c2ccccc12)C(=O)NNC(=O)c1cc(C(F)(F)F)cc(C(F)(F)F)c1 [2b, H-Tyr-D-Ala-Gly-Trp-NH-NH-C(=O)-3,5-(CF3)2Ph] (H-Y[dA]GW-X4) | 93.5 ± 32.8 nM |  | 467 ± 36.9 nM | > 1000 nM | no effect |  |  |  |  | 
3 | C[C@@H](NC(=O)[C@@H](N)Cc1ccc(O)cc1)C(=O)N[C@@H](Cc1ccccc1)C(=O)N[C@@H](Cc1ccccc1)C(=O)NN=Cc1cc(C(F)(F)F)cc(C(F)(F)F)c1 [3a, H-Tyr-D-Ala-Phe-Phe-NH-N=CH-3,5-(CF3)2Ph] (H-Y[dA]FF-X3) | 90.4 ± 9.91 nM |  | > 1000 nM | 723 ± 58.2 nM | significantly decrease the number of melanoma cells | ~ 2 % of the control | do not exhibit any appreciable DOR binding |  |  | 
4 | C[C@@H](NC(=O)[C@@H](N)Cc1ccc(O)cc1)C(=O)N[C@@H](Cc1ccccc1)C(=O)N[C@@H](Cc1ccccc1)C(=O)NNC(=O)c1cc(C(F)(F)F)cc(C(F)(F)F)c1 [3b, H-Tyr-D-Ala-Phe-Phe-NH-NH-C(=O)-3,5-(CF3)2Ph] (H-Y[dA]FF-X4) | 391 ± 57.9 nM |  | > 1000 nM | > 1000 nM | no effect |  | do not exhibit any appreciable DOR binding |  |  | 
5 | C[C@@H](NC(=O)[C@@H](N)Cc1ccc(O)cc1)C(=O)N[C@@H](Cc1c[nH]c2ccccc12)C(=O)NN=Cc1cc(C(F)(F)F)cc(C(F)(F)F)c1 [4a, H-Tyr-D-Ala-Trp-NH-N=CH-3,5-(CF3)2Ph] | 118 ± 40.2 nM |  | 621 ± 65.2 nM | > 1000 nM | significantly decrease the number of melanoma cells | 65 ± 10 % of the control |  |  |  | 
6 | C[C@@H](NC(=O)[C@@H](N)Cc1ccc(O)cc1)C(=O)N[C@@H](Cc1c[nH]c2ccccc12)C(=O)NNC(=O)c1cc(C(F)(F)F)cc(C(F)(F)F)c1 [4b, H-Tyr-D-Ala-Trp-NH-NH-C(=O)-3,5-(CF3)2Ph] |  |  |  |  | no effect |  |  | > 1000 nM | > 1000 nM | > 1000 nM
7 | N[C@@H](Cc1ccc(O)cc1)C(=O)N1CCC[C@H]1C(=O)N[C@@H](Cc1ccccc1)C(=O)N[C@@H](Cc1ccccc1)C(=O)NN=Cc1cc(C(F)(F)F)cc(C(F)(F)F)c1 [5a, H-Tyr-Pro-Phe-Phe-NH-N=CH-3,5-(CF3)2Ph] | 28.5 ± 9.41 nM |  | > 1000 nM | > 1000 nM | significantly decrease the number of melanoma cells | ~ 2 % of the control | do not exhibit any appreciable DOR binding |  |  | 
8 | N[C@@H](Cc1ccc(O)cc1)C(=O)N1CCC[C@H]1C(=O)N[C@@H](Cc1ccccc1)C(=O)NN=Cc1cc(C(F)(F)F)cc(C(F)(F)F)c1 [6a, H-Tyr-Pro-Phe-NH-N=CH-3,5-(CF3)2Ph] | 113 ± 7 nM |  | > 1000 nM | > 1000 nM | significantly decrease the number of melanoma cells | 53 ± 3 % of the control | do not exhibit any appreciable DOR binding |  |  | 
9 | C[C@@H](O[C@H]1OCCN(Cc2n[nH]c(=O)[nH]2)[C@H]1c1ccc(F)cc1)c1cc(C(F)(F)F)cc(C(F)(F)F)c1 [aprepitant, reference compound] |  |  |  |  |  | 78 ± 4 % of the control |  |  |  | 
